This is an account of results in ChEMBL document CHEMBL1141645, “Synthesis and antimycobacterial evaluation of new trans-cinnamic acid hydrazide derivatives” (2008).

Usually MIC stands for the lowest concentration that inhibits growth of the organism. Low values mean inhibition by little substance, high ones a need for much substance.

Converted amounts (≈) assume the structure as drawn.

The experiment deals with Mycobacterium tuberculosis. Kind of experiment: Antimicrobial activity against Mycobacterium tuberculosis ATCC […] by Almar blue assay. The class given is functional.
On to `COc1ccc(/C=C/C(=O)NNC(=O)c2ccccc2)cc1`, for which the MIC was 12.5 µg/mL (≈ 42.2 µM).
As for `O=C(/C=C/c1ccc(Cl)cc1Cl)NNC(=O)c1ccncc1`, the MIC was more than 100 µg/mL.
With `NNC(=O)c1ccncc1` [ISONIAZID] the figure was 0.2 µg/mL (≈ 1.46 µM).
With `O=C(/C=C/c1ccc2c(c1)OCO2)NNC(=O)c1ccccc1` the figure was 25 µg/mL (≈ 80.6 µM); with `O=C(/C=C/c1ccccc1)NNC(=O)c1ccncc1`, 3.12 µg/mL (≈ 11.7 µM); with `O=C(/C=C/c1ccc2c(c1)OCO2)NNC(=O)c1ccncc1`, 3.12 µg/mL (≈ 10 µM).
Compound `COc1ccc(/C=C/C(=O)NNC(=O)c2ccncc2)cc1` returned an MIC of 3.12 µg/mL (≈ 10.5 µM).
The compound `O=C(/C=C/c1ccc(Cl)cc1Cl)NNC(=O)c1ccccc1` displayed an MIC of more than 100 µg/mL.
In the case of `O=C(/C=C/c1ccc([N+](=O)[O-])cc1)NNC(=O)c1ccncc1`, the MIC was 3.12 µg/mL (≈ 9.99 µM).
The compound `O=C(/C=C/c1ccccc1)NNC(=O)c1ccccc1` gave an MIC of 50 µg/mL (≈ 188 µM).
In the case of `O=C(/C=C/c1ccc([N+](=O)[O-])cc1)NNC(=O)c1ccccc1`, the MIC was more than 100 µg/mL.
